These compounds were tested against recombinant human Nav1.7 (Homo sapiens (Human), UniProt Q15858) (assay: FRET-based membrane potential assay, recombinant human sodium channel Nav1.7). Settings: HEK293 cells stably expressing recombinant human Nav1.7; veratridine + scorpion venom depolarization; read-out: FRET-Membrane Potential Nav1.7 IC50.
Assay type: cell-based
Method in brief: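 Channel activation used veratridine at its EC80, set by a dilution curve each experiment, together with Leiurus scorpion venom, added 3 min after compound. Membrane-potential ratio signals from FLIPR Tetra in HEPES-buffered HBSS were fitted to a four-parameter Hill equation for percent inhibition and IC50.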

recombinant human Nav1.7, sequence (Q15858 whole entry): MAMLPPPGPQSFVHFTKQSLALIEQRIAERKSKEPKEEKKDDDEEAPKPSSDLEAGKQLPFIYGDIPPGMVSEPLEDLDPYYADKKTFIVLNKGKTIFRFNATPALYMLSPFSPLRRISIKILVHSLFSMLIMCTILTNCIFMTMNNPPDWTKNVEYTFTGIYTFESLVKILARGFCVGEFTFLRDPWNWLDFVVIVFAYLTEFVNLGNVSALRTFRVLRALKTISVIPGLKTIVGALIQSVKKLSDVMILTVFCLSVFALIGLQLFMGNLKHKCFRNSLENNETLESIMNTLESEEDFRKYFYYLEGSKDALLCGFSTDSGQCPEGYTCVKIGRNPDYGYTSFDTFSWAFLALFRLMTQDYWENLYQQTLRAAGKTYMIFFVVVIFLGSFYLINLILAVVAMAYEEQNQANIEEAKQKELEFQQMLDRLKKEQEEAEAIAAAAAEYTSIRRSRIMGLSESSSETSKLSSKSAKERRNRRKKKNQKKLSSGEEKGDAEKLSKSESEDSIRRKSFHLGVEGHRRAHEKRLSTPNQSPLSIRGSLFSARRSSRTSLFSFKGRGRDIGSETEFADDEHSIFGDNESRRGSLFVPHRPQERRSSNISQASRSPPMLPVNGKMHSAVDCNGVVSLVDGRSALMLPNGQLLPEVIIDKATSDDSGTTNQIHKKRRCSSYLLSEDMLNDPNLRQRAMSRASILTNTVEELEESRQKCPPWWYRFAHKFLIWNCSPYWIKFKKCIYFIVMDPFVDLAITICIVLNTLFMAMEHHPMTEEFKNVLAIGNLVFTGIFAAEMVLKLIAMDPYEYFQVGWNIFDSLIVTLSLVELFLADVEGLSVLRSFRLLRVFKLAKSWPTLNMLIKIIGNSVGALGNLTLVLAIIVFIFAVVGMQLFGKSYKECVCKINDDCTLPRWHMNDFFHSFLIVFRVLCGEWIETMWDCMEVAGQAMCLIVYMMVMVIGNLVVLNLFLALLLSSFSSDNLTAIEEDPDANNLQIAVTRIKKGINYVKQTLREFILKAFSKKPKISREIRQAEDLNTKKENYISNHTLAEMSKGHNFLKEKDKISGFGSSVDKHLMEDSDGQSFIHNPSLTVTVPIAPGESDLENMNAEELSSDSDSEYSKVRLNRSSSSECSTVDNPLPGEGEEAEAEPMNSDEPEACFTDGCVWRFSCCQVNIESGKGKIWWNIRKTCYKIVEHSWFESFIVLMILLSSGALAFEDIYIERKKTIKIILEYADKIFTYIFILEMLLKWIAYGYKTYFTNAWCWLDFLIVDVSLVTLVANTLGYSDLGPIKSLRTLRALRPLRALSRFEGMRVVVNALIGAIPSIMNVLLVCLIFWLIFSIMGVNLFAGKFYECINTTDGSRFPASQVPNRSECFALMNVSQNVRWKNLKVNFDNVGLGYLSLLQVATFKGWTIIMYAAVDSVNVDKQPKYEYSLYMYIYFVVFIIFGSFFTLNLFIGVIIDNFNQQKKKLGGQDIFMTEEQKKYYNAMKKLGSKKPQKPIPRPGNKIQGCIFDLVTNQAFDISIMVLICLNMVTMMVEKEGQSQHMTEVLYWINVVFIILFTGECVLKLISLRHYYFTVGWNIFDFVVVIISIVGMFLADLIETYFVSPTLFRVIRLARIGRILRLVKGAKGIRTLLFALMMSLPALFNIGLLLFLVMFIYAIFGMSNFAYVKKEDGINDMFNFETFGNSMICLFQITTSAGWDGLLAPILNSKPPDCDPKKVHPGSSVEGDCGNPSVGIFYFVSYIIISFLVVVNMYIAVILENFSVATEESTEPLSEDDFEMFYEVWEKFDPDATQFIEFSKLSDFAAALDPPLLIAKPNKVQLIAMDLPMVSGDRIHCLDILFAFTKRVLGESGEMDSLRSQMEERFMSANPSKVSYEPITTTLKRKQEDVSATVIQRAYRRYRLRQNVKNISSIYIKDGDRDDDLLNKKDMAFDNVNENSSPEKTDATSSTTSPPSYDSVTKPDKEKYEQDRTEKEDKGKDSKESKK

First: O=C(c1ccc2cc(Oc3ccc(C(F)(F)F)cn3)ccc2n1)N1CCC(N2C[C@H]3C[C@@H]2CO3)CC1 [Example 378, {4-[(1R,4R)-2-oxa-5-azabicyclo[2.2.1]hept-5-yl]piperidin-1-yl}(6-{[5-(trifluoromethyl)pyridin-2-yl]oxy}quinolin-2-yl)methanone]
Second: NC1CCN(C(=O)c2ccc3cc(Oc4ccc(C(F)(F)F)cn4)ccc3n2)CC1 [Example 403, (4-aminopiperidin-1-yl)(6-{[5-(trifluoromethyl)pyridin-2-yl]oxy}quinolin-2-yl)methanone]
The IC50 of the first is 4.3-fold lower: 2230 nM for the first, 9670 nM for the second. The first is the more potent here.

First: COCCN(CCOC)C(=O)c1ccc2cc(Oc3ccc(C(F)(F)F)cn3)ccc2n1 [Example 379, N,N-bis(2-methoxyethyl)-6-{[5-(trifluoromethyl)pyridin-2-yl]oxy}quinoline-2-carboxamide]
Second: CN(C)C(=O)CN(C)C(=O)c1ccc2cc(Oc3ccc(C(F)(F)F)cn3)ccc2n1 [Example 413, N-[2-(dimethylamino)-2-oxoethyl]-N-methyl-6-{[5-(trifluoromethyl)pyridin-2-yl]oxy}quinoline-2-carboxamide]
The IC50 of the first is 3.7-fold lower: 3390 nM for the first, 12400 nM for the second. The first is the more potent here.

First: O=C(NC1(CO)CC1)c1ccc2cc(Oc3ccc(C(F)(F)F)cn3)ccc2n1 [Example 380, N-[1-(hydroxymethyl)cyclopropyl]-6-{[5-(trifluoromethyl)pyridin-2-yl]oxy}quinoline-2-carboxamide]
Second: O=C(NC1COC1)c1ccc2cc(Oc3ccc(C(F)(F)F)cn3)ccc2n1 [Example 399, N-(oxetan-3-yl)-6-{[5-(trifluoromethyl)pyridin-2-yl]oxy}quinoline-2-carboxamide]
The IC50 of the first is 8-fold higher: 3000 nM for the first, 375 nM for the second. The second is the more potent here.

Going from `O=C(c1ccc2cc(Oc3ccc(C(F)(F)F)cn3)ccc2n1)N1CCN(S(=O)(=O)C2CCOC2)CC1` (stereo not shown) [Example 381, [4-(tetrahydrofuran-3-ylsulfonyl)piperazin-1-yl](6-{[5-(trifluoromethyl)pyridin-2-yl]oxy}quinolin-2-yl)methanone] to `O=C(c1ccc2cc(Oc3ccc(C(F)(F)F)cn3)ccc2n1)N1CCN(S(=O)(=O)C2CCOCC2)CC1` [Example 383, [4-(tetrahydro-2H-pyran-4-ylsulfonyl)piperazin-1-yl](6-{[5-(trifluoromethyl)pyridin-2-yl]oxy}quinolin-2-yl)methanone], the IC50 rises from 3410 nM to over 20000 nM.

`COC(=O)CS(=O)(=O)N1CCN(C(=O)c2ccc3cc(Oc4ccc(C(F)(F)F)cn4)ccc3n2)CC1` [Example 382, methyl ({4-[(6-{[5-(trifluoromethyl)pyridin-2-yl]oxy}quinolin-2-yl)carbonyl]piperazin-1-yl}sulfonyl)acetate] and `O=C(c1ccc2cc(Oc3ccc(C(F)(F)F)cn3)ccc2n1)N1CCN(S(=O)(=O)CC2CCOC2)CC1` (stereo not shown) [Example 385, {4-[(tetrahydrofuran-3-ylmethyl)sulfonyl]piperazin-1-yl}(6-{[5-(trifluoromethyl)pyridin-2-yl]oxy}quinolin-2-yl)methanone] are within 1.5-fold of each other in IC50: 1820 nM for the first, 2330 nM for the second.

`COCCn1cc(S(=O)(=O)N2CCN(C(=O)c3ccc4cc(Oc5ccc(C(F)(F)F)cn5)ccc4n3)CC2)cn1` [Example 384, (4-{[1-(2-methoxyethyl)-1H-pyrazol-4-yl]sulfonyl}piperazin-1-yl)(6-{[5-(trifluoromethyl)pyridin-2-yl]oxy}quinolin-2-yl)methanone] and `Cn1cc(S(=O)(=O)N2CCN(C(=O)c3ccc4cc(Oc5ccc(C(F)(F)F)cn5)ccc4n3)CC2)cn1` [Example 387, {4-[(1-methyl-1H-pyrazol-4-yl)sulfonyl]piperazin-1-yl}(6-{[5-(trifluoromethyl)pyridin-2-yl]oxy}quinolin-2-yl)methanone] are within 1.5-fold of each other in IC50: 1930 nM for the first, 2480 nM for the second.

Going from `O=C(c1ccc2cc(Oc3ccc(C(F)(F)F)cn3)ccc2n1)N1CCN(S(=O)(=O)C2CCS(=O)(=O)C2)CC1` (stereo not shown) [Example 386, {4[(1,1-dioxidotetrahydrothiophen-3-yl)sulfonyl]piperazin-1-yl}(6-{[5-(trifluoromethyl)pyridin-2-yl]oxy}quinolin-2-yl)methanone] to `Cc1c(S(=O)(=O)N2CCN(C(=O)c3ccc4cc(Oc5ccc(C(F)(F)F)cn5)ccc4n3)CC2)cnn1C` [Example 390, {4-[(1,5-dimethyl-1H-pyrazol-4-yl)sulfonyl]piperazin-1-yl}(6-{[5-(trifluoromethyl)pyridin-2-yl]oxy}quinolin-2-yl)methanone], the IC50 falls from over 20000 nM to 2340 nM.

Going from `CC(=O)Nc1nc(C)c(S(=O)(=O)N2CCN(C(=O)c3ccc4cc(Oc5ccc(C(F)(F)F)cn5)ccc4n3)CC2)s1` [Example 388, N-[4-methyl-5-({4-[(6-{[5-(trifluoromethyl)pyridin-2-yl]oxy}quinolin-2-yl)carbonyl]piperazin-1-yl}sulfonyl)-1,3-thiazol-2-yl]acetamide] to `CC(=O)Nc1ncc(S(=O)(=O)N2CCN(C(=O)c3ccc4cc(Oc5ccc(C(F)(F)F)cn5)ccc4n3)CC2)s1` [Example 389, N-[5-({4-[(6-{[5-(trifluoromethyl)pyridin-2-yl]oxy}quinolin-2-yl)carbonyl]piperazin-1-yl}sulfonyl)-1,3-thiazol-2-yl]acetamide], the IC50 falls from over 20000 nM to 9220 nM.

`O=C(NC[C@@H]1CCCO1)c1ccc2cc(Oc3ccc(C(F)(F)F)cn3)ccc2n1` [Example 394, N-[(2S)-tetrahydrofuran-2-ylmethyl]-6-{[5-(trifluoromethyl)pyridin-2-yl]oxy}quinoline-2-carboxamide] and `O=C(NC[C@H]1CCCO1)c1ccc2cc(Oc3ccc(C(F)(F)F)cn3)ccc2n1` [Example 409, N-[(2R)-tetrahydrofuran-2-ylmethyl]-6-{[5-(trifluoromethyl)pyridin-2-yl]oxy}quinoline-2-carboxamide] are within 1.5-fold of each other in IC50: 443 nM for the first, 403 nM for the second.

Going from `COC1CN(C(=O)c2ccc3cc(Oc4ccc(C(F)(F)F)cn4)ccc3n2)C1` [Example 396, (3-methoxyazetidin-1-yl)(6-{[5-(trifluoromethyl)pyridin-2-yl]oxy}quinolin-2-yl)methanone] to `CO[C@H]1C[C@H](NC(=O)c2ccc3cc(Oc4ccc(C(F)(F)F)cn4)ccc3n2)C1` [Example 397, N-(trans-3-methoxycyclobutyl)-6-{[5-(trifluoromethyl)pyridin-2-yl]oxy}quinoline-2-carboxamide], the IC50 falls from 1940 nM to 896 nM (2.2-fold). The second is the more potent here.

Compared with `CN(C(=O)c1ccc2cc(Oc3ccc(C(F)(F)F)cn3)ccc2n1)C1CS(=O)(=O)CC1O` (stereo not shown) [Example 398, N-(4-hydroxy-1,1-dioxidotetrahydrothiophen-3-yl)-N-methyl-6-{[5-(trifluoromethyl)pyridin-2-yl]oxy}quinoline-2-carboxamide], `CN(C(=O)c1ccc2cc(Oc3ccc(C(F)(F)F)cn3)ccc2n1)C1CCOCC1` [Example 411, N-methyl-N-(tetrahydro-2H-pyran-4-yl)-6-{[5-(trifluoromethyl)pyridin-2-yl]oxy}quinoline-2-carboxamide] is 2.3-fold higher in IC50: 6110 nM for the first, 14100 nM for the second.

Going from `O=C(NC1CCSCC1)c1ccc2cc(Oc3ccc(C(F)(F)F)cn3)ccc2n1` [Example 400, N-(tetrahydro-2H-thiopyran-4-yl)-6-{[5-(trifluoromethyl)pyridin-2-yl]oxy}quinoline-2-carboxamide] to `O=C(N[C@H]1CCC[C@H]1O)c1ccc2cc(Oc3ccc(C(F)(F)F)cn3)ccc2n1` [Example 401, N-[(1S,2R)-2-hydroxycyclopentyl]-6-{[5-(trifluoromethyl)pyridin-2-yl]oxy}quinoline-2-carboxamide], the IC50 falls from 1220 nM to 400 nM (3-fold). The second is the more potent here.

Going from `NC(=O)C1CN(C(=O)c2ccc3cc(Oc4ccc(C(F)(F)F)cn4)ccc3n2)CCN1` (stereo not shown) [Example 402, 4-[(6-{[5-(trifluoromethyl)pyridin-2-yl]oxy}quinolin-2-yl)carbonyl]piperazine-2-carboxamide] to `O=C(c1ccc2cc(Oc3ccc(C(F)(F)F)cn3)ccc2n1)N1CCNCC(O)C1` (stereo not shown) [Example 407, (6-hydroxy-1,4-diazepan-1-yl)(6-{[5-(trifluoromethyl)pyridin-2-yl]oxy}quinolin-2-yl)methanone], the IC50 falls from 9070 nM to 3810 nM (2.4-fold).

`O=C(c1ccc2cc(Oc3ccc(C(F)(F)F)cn3)ccc2n1)N1CCC(F)(F)C1` [Example 404, (3,3-difluoropyrrolidin-1-yl)(6-{[5-(trifluoromethyl)pyridin-2-yl]oxy}quinolin-2-yl)methanone] and `CC1(C)CCN(C(=O)c2ccc3cc(Oc4ccc(C(F)(F)F)cn4)ccc3n2)C1` [Example 405, (3,3-dimethylpyrrolidin-1-yl)(6-{[5-(trifluoromethyl)pyridin-2-yl]oxy}quinolin-2-yl)methanone] are within 1.5-fold of each other in IC50: 1950 nM for the first, 1400 nM for the second.

First: O=C(c1ccc2cc(Oc3ccc(C(F)(F)F)cn3)ccc2n1)N1CCNCC(F)C1 (stereo not shown) [Example 406, (6-fluoro-1,4-diazepan-1-yl)(6-{[5-(trifluoromethyl)pyridin-2-yl]oxy}quinolin-2-yl)methanone]
Second: CS(=O)(=O)NC1CCN(C(=O)c2ccc3cc(Oc4ccc(C(F)(F)F)cn4)ccc3n2)CC1 [Example 408, N-{1-[(6-{[5-(trifluoromethyl)pyridin-2-yl]oxy}quinolin-2-yl)carbonyl]piperidin-4-yl}methanesulfonamide]
The IC50 of the first is lower: 1060 nM for the first, over 20000 nM for the second.

Same assay, conditions: read-out: FRET-Membrane Potential Nav1.7 IC50

Going from `COCCN(C)C(=O)c1ccc2cc(Oc3ccc(C(F)(F)F)cn3)ccc2n1` [Example 392, N-(2-methoxyethyl)-N-methyl-6-{[5-(trifluoromethyl)pyridin-2-yl]oxy}quinoline-2-carboxamide] to `C[C@H](O)CNC(=O)c1ccc2cc(Oc3ccc(C(F)(F)F)cn3)ccc2n1` [Example 410, N-[(2S)-2-hydroxypropyl]-6-{[5-(trifluoromethyl)pyridin-2-yl]oxy}quinoline-2-carboxamide], the IC50 falls from 7960 nM to 557 nM (14-fold).

First: O=C(c1ccc2cc(Oc3ccc(C(F)(F)F)cn3)ccc2n1)N1C[C@H](O)C[C@@H](O)C1 [Example 395, [(3R,5R)-3,5-dihydroxypiperidin-1-yl](6-{[5-(trifluoromethyl)pyridin-2-yl]oxy}quinolin-2-yl)methanone]
Second: O=C(NCC1(O)COC1)c1ccc2cc(Oc3ccc(C(F)(F)F)cn3)ccc2n1 [Example 412, N-[(3-hydroxyoxetan-3-yl)methyl]-6-{[5-(trifluoromethyl)pyridin-2-yl]oxy}quinoline-2-carboxamide]
The IC50 of the first is higher: over 20000 nM for the first, 513 nM for the second.

— patent US9452986B2, “6-heteroaryloxy- or 6-aryloxy-quinoline-2-carboxamides and method of use” (AbbVie Inc., priority 2014, dated 2016)
